# Measured values from patent US9067871B2, “Aminotetraline derivatives, pharmaceutical compositions containing them, and their use in therapy” (ABBVIE DEUTSCHLAND GMBH & CO KG, priority 2009, dated 2015).
# Counter-ions that a name gives are not always drawn.
# Target: human GlyT1c transporter (Homo sapiens (Human), UniProt P48067)
# Assay: Radioligand binding assay using recombinant CHO cell membranes expressing human GlyT1
# Conditions: human GlyT1c-expressing CHO cell membranes; read-out: radioligand binding Kiapp
# Text: 2. Radioligand binding assays using recombinant CHO cell membranes expressing human GlyT1: […]
# Sequence of human GlyT1c transporter (P48067 whole entry): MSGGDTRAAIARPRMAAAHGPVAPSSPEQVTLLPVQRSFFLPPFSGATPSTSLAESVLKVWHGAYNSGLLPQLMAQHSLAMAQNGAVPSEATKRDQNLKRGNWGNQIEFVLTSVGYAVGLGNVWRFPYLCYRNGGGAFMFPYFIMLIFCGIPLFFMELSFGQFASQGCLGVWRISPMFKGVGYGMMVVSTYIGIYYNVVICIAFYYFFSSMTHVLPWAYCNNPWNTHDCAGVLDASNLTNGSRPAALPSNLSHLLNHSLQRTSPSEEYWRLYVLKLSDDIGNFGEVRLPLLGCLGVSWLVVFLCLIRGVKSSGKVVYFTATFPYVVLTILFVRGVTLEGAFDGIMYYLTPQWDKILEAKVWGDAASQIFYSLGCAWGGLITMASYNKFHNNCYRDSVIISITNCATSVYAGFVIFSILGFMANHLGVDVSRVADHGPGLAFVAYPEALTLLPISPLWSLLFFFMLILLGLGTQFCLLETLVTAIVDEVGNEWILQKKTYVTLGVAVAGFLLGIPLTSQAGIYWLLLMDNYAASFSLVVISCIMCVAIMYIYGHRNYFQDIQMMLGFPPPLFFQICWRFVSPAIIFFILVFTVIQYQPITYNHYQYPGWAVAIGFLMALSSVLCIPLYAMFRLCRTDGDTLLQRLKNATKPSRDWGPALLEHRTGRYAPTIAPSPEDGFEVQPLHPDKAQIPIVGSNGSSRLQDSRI
row,Ki [nM],SMILES
1,≤ 10,"NC1CCc2ccc(OCCNS(=O)(=O)CC3CC3)cc2C1Cc1cc(F)cc(Cl)c1 (stereo not drawn) [Example 150, N-(2-{[7-Amino-8-(3-chloro-5-fluorobenzyl)-5,6,7,8-tetrahydronaphthalen-2-yl]oxy}ethyl)-1-cyclopropylmethanesulfonamide hydrochloride]"
2,≤ 10,"Cn1cnc(S(=O)(=O)NCCOc2ccc3c(c2)C(Cc2cc(F)cc(Cl)c2)C(N)CC3)c1 (stereo not drawn) [Example 151, N-(2-{[7-Amino-8-(3-chloro-5-fluorobenzyl)-5,6,7,8-tetrahydronaphthalen-2-yl]oxy}ethyl)-1-methyl-1H-imidazole-4-sulfonamide hydrochloride]"
3,≤ 10,"Cn1cnc(S(=O)(=O)NCCOc2ccc3c(c2)C(Cc2ccccc2)C(N2CCC(F)C2)CC3)c1 (stereo not drawn) [Example 152, N-[2-({8-Benzyl-7-[3-fluoropyrrolidin-1-yl]-5,6,7,8-tetrahydronaphthalen-2-yl}oxy)ethyl]-1-methyl-1H-imidazole-4-sulfonamide hydrochloride]"
4,≤ 100,"Cn1cnc(S(=O)(=O)NCCOc2ccc3c(c2)C(Cc2cccc(C#N)c2)C(N2CCCC2)CC3)c1 (stereo not drawn) [Example 153, N-(2-{[8-(3-Cyanobenzyl)-7-(pyrrolidin-1-yl)-5,6,7,8-tetrahydronaphthalen-2-yl]oxy}ethyl)-1-methyl-1H-imidazole-4-sulfonamide]"
5,≤ 100,"CC(C)NC1CCc2ccc(OCCNS(=O)(=O)c3cn(C)cn3)cc2C1Cc1cccc(C#N)c1 (stereo not drawn) [Example 154, N-(2-{[8-(3-Cyanobenzyl)-7-(propan-2-ylamino)-5,6,7,8-tetrahydronaphthalen-2-yl]oxy}ethyl)-1-methyl-1H-imidazole-4-sulfonamide hydrochloride]"
6,≤ 1000,"N#Cc1cccc(CC2c3cc(OCCNS(=O)(=O)CC4CC4)ccc3CCC2N2CCCC2)c1 (stereo not drawn) [Example 155, N-(2-{[8-(3-Cyanobenzyl)-7-(pyrrolidin-1-yl)-5,6,7,8-tetrahydronaphthalen-2-yl]oxy}ethyl)-1-cyclopropylmethanesulfonamide hydrochloride]"
7,≤ 1000,"CC(C)NC1CCc2ccc(OCCNS(=O)(=O)CC3CC3)cc2C1Cc1cccc(C#N)c1 (stereo not drawn) [Example 156, N-(2-{[8-(3-Cyanobenzyl)-7-(propan-2-ylamino)-5,6,7,8-tetrahydronaphthalen-2-yl]oxy}ethyl)-1-cyclopropylmethanesulfonamide hydrochloride]"
8,≤ 10,"CNC1CCc2ccc(OCCNS(=O)(=O)CC3CC3)cc2C1Cc1cc(F)cc(Cl)c1 (stereo not drawn) [Example 158, N-(2-{[8-(3-Chloro-5-fluorobenzyl)-7-(methylamino)-5,6,7,8-tetrahydronaphthalen-2-yl]oxy}ethyl)-1-cyclopropylmethanesulfonamide hydrochloride]"
9,≤ 100,"O=S(=O)(CC1CC1)NCCOc1ccc2c(c1)C(Cc1cc(F)cc(Cl)c1)C(N1CCC1)CC2 (stereo not drawn) [Example 159, N-(2-{[7-(Azetidin-1-yl)-8-(3-chloro-5-fluorobenzyl)-5,6,7,8-tetrahydronaphthalen-2-yl]oxy}ethyl)-1-cyclopropylmethanesulfonamide (2E)-but-2-enedioate]"
10,≤ 10,"Cn1cnc(S(=O)(=O)NCCOc2ccc3c(c2)C(Cc2cc(F)cc(Cl)c2)C(N2CCC2)CC3)c1 (stereo not drawn) [Example 160, N-(2-{[7-(Azetidin-1-yl)-8-(3-chloro-5-fluorobenzyl)-5,6,7,8-tetrahydronaphthalen-2-yl]oxy}ethyl)-1-methyl-1H-imidazole-4-sulfonamide(2E)-but-2-enedioate]"
11,≤ 10,"CNC1CCc2ccc(OCCNS(=O)(=O)CC3CC3)cc2C1Cc1ccc(F)cc1 (stereo not drawn) [Example 161, 1-Cyclopropyl-N-(2-{[8-(4-fluorobenzyl)-7-(methylamino)-5,6,7,8-tetrahydronaphthalen-2-yl]oxy}ethyl)methanesulfonamide]"
12,≤ 10,"Cc1cccc(CC2c3cc(OCCNS(=O)(=O)c4cn(C)cn4)ccc3CCC2N2CCCC2)c1 (stereo not drawn) [Example 163, 1-Methyl-N-(2-{[8-(3-methylbenzyl)-7-(pyrrolidin-1-yl)-5,6,7,8-tetrahydronaphthalen-2-yl]oxy}ethyl)-1H-imidazole-4-sulfonamide]"
13,≤ 10,"COc1cccc(CC2c3cc(OCCNS(=O)(=O)c4cn(C)cn4)ccc3CCC2N2CCCC2)c1 (stereo not drawn) [Example 164, N-(2-{[8-(3-Methoxybenzyl)-7-(pyrrolidin-1-yl)-5,6,7,8-tetrahydronaphthalen-2-yl]oxy}ethyl)-1-methyl-1H-imidazole-4-sulfonamide hydrochloride]"
14,≤ 10,"Cn1cnc(S(=O)(=O)NCCOc2ccc3c(c2)C(Cc2cccc(C(F)(F)F)c2)C(N)CC3)c1 (stereo not drawn) [Example 165, 1-Methyl-1H-imidazole-4-sulfonic acid {2-[7-amino-8-(3-trifluoromethyl-benzyl)-5,6,7,8-tetrahydro-naphthalen-2-yloxy]-ethyl}-amide hydrochloride]"
15,≤ 10,"Cn1cc(S(=O)(=O)NCc2ccc3c(c2)C(Cc2ccccc2)C(N)CC3)cn1 (stereo not drawn) [Example 172, N-[(7-Amino-8-benzyl-5,6,7,8-tetrahydronaphthalen-2-yl)methyl]-1-methyl-1H-pyrazole-4-sulfonamide hydrochloride]"
16,≤ 10,"Cn1cnc(S(=O)(=O)NCc2ccc3c(c2)C(Cc2ccccc2)C(N)CC3)c1 (stereo not drawn) [Example 173, N-[(7-Amino-8-benzyl-5,6,7,8-tetrahydronaphthalen-2-yl)methyl]-1-methyl-1H-imidazole-4-sulfonamide hydrochloride]"
17,≤ 1000,"NC1CCc2ccc(CNS(=O)(=O)C3CCC3)cc2C1Cc1ccc(F)cc1 (stereo not drawn) [Example 174, N-{[7-Amino-8-(4-fluorobenzyl)-5,6,7,8-tetrahydronaphthalen-2-yl]methyl}cyclobutanesulfonamide hydrochloride]"

row,Ki [nM],SMILES
1,≤ 100,"Cn1cnc(S(=O)(=O)NCc2ccc3c(c2)C(Cc2ccc(F)cc2)C(N)CC3)c1 (stereo not drawn) [Example 176, N-{[7-Amino-8-(4-fluorobenzyl)-5,6,7,8-tetrahydronaphthalen-2-yl]methyl}-1-methyl-1H-imidazole-4-sulfonamide hydrochloride]"
2,≤ 10,"Cn1cnc(S(=O)(=O)NCc2ccc3c(c2)C(Cc2cccc(F)c2)C(N)CC3)c1 (stereo not drawn) [Example 177, N-{[7-Amino-8-(3-fluorobenzyl)-5,6,7,8-tetrahydronaphthalen-2-yl]methyl}-1-methyl-1H-imidazole-4-sulfonamide hydrochloride]"
3,≤ 10,"Cn1cc(S(=O)(=O)NCc2ccc3c(c2)C(Cc2cccc(F)c2)C(N)CC3)cn1 (stereo not drawn) [Example 178, N-{[7-Amino-8-(3-fluorobenzyl)-5,6,7,8-tetrahydronaphthalen-2-yl]methyl}-1-methyl-1H-pyrazole-4-sulfonamide hydrochloride]"
4,≤ 1000,"Cc1cccc(S(=O)(=O)NCc2ccc3c(c2)C(Cc2ccccc2)C(N)CC3)c1 (stereo not drawn) [Example 179, N-{[7-Amino-8-benzyl-5,6,7,8-tetrahydronaphthalen-2-yl]methyl}-3-methylbenzenesulfonamide hydrochloride]"
5,≤ 10,"Cn1ccc(S(=O)(=O)NCc2ccc3c(c2)C(Cc2ccccc2)C(N)CC3)c1 (stereo not drawn) [Example 180, N-{[7-Amino-8-benzyl-5,6,7,8-tetrahydronaphthalen-2-yl]methyl}-1-methyl-1H-pyrrole-3-sulfonamide hydrochloride]"
6,≤ 100,"NC1CCc2ccc(CNS(=O)(=O)c3cccnc3)cc2C1Cc1ccccc1 (stereo not drawn) [Example 181, N-{[7-Amino-8-benzyl-5,6,7,8-tetrahydronaphthalen-2-yl]methyl}pyridine-3-sulfonamide dihydrochloride]"
7,≤ 100,"Cn1cc(S(=O)(=O)NCc2ccc3c(c2)C(Cc2ccccc2)C(N)CC3)c(C(F)(F)F)n1 (stereo not drawn) [Example 182, N-{[7-Amino-8-benzyl-5,6,7,8-tetrahydronaphthalen-2-yl]methyl}-1-methyl-3-(trifluoromethyl)-1H-pyrazole-4-sulfonamide hydrochloride]"
8,≤ 1000,"Cn1ccc(S(=O)(=O)NCc2ccc3c(c2)C(Cc2ccccc2)C(N)CC3)n1 (stereo not drawn) [Example 183, N-{[7-Amino-8-benzyl-5,6,7,8-tetrahydronaphthalen-2-yl]methyl}-1-methyl-1H-pyrazole-3-sulfonamide hydrochloride]"
9,≤ 100,"NC1CCc2ccc(CNS(=O)(=O)C3CCC3)cc2C1Cc1cccc(F)c1 (stereo not drawn) [Example 184, N-{[7-Amino-8-(3-fluorobenzyl)-5,6,7,8-tetrahydronaphthalen-2-yl]methyl}cyclobutanesulfonamide hydrochloride]"
10,≤ 1000,"NC1CCc2ccc(CNS(=O)(=O)CC3CC3)cc2C1Cc1ccc(F)c(F)c1 (stereo not drawn) [Example 185, N-{[7-Amino-8-(3,4-difluorobenzyl)-5,6,7,8-tetrahydronaphthalen-2-yl]methyl}-1-cyclopropylmethanesulfonamide hydrochloride]"
11,≤ 1000,"NC1CCc2ccc(CNS(=O)(=O)C3CCC3)cc2C1Cc1ccc(F)c(F)c1 (stereo not drawn) [Example 186, N-{[7-Amino-8-(3,4-difluorobenzyl)-5,6,7,8-tetrahydronaphthalen-2-yl]methyl}cyclobutanesulfonamide hydrochloride]"
12,≤ 100,"CNC1CCc2ccc(CNS(=O)(=O)C3CCC3)cc2C1Cc1ccccc1 (stereo not drawn) [Example 188, N-{[8-Benzyl-7-(methylamino)-5,6,7,8-tetrahydronaphthalen-2-yl]methyl}cyclobutanesulfonamide hydrochloride]"
13,≤ 10000,"CNC1CCc2ccc(CNS(=O)(=O)c3cccc(C)c3)cc2C1Cc1ccccc1 (stereo not drawn) [Example 189, N-{[8-Benzyl-7-(methylamino)-5,6,7,8-tetrahydronaphthalen-2-yl]methyl}-3-methylbenzenesulfonamide hydrochloride]"
14,≤ 10,"CNC1CCc2ccc(CNS(=O)(=O)c3ccn(C)c3)cc2C1Cc1ccccc1 (stereo not drawn) [Example 190, N-{[8-Benzyl-7-(methylamino)-5,6,7,8-tetrahydronaphthalen-2-yl]methyl}-1-methyl-1H-pyrrole-3-sulfonamide hydrochloride]"
15,≤ 1000,"CNC1CCc2ccc(CNS(=O)(=O)c3ccn(C)n3)cc2C1Cc1ccccc1 (stereo not drawn) [Example 191, N-{[8-Benzyl-7-(methylamino)-5,6,7,8-tetrahydronaphthalen-2-yl]methyl}-1-methyl-1H-pyrazole-3-sulfonamide hydrochloride]"
16,≤ 10000,CC(=O)NC1CCc2ccc(CNS(=O)(=O)c3cn(C)cn3)cc2C1Cc1ccc(F)cc1 (stereo not drawn) [Example 197]
